Each structure is given as a SMILES string. Where two headings read alike, the source gives them in different places.

For one experiment, the target named is T1, Tyk2 (Homo sapiens, UniProt P29597).
T1 construct: purchased Invitrogen
In words: Tyk2 enzyme inhibition test (LANCE method). As to conditions: for inhibition at 1 µM / Inhibitory rate (%) Tyk2 1 μM: test compound 1 μM; for inhibition at 1 µM: read-out: Inhibitory rate (%) Tyk2 1 μM. It counts as biochemical. An outline of the steps: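 LANCE TR-FRET read-out (ex 340/em 665 nm, 100 μs delay) of ULight-JAK1 phosphorylation, with no-enzyme wells as 100% inhibition. Reaction run 1 h at room temperature in pH 7.5 HEPES buffer; enzyme 375 ng/mL, substrate 300 nM and ATP 30 μM are solution concentrations before mixing.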

Another experiment has as its target T2, JAK1 (Homo sapiens, UniProt P23458).
T2 construct: purchased Invitrogen
As to the kind of experiment: JAK1 enzyme inhibition test (LANCE method). The conditions noted are these: for inhibition at 1 µM: read-out: Inhibitory rate (%) JAK1 1 μM; for inhibition at 10 µM: read-out: Inhibitory rate (%) JAK1 10 μM. It counts as biochemical. An outline of the steps:
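Reactions ran 1 h at room temperature in HEPES pH 7.5/MgCl2 buffer, with ATP solution at 150 μM and JAK1 and ULight peptide solutions at 187.5 ng/mL and 300 nM. Reactions were stopped with EDTA, and phosphorylation was read by Eu antibody time-resolved fluorescence at 665 nm. Inhibition was scaled to a no-enzyme control as 100%.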

The mark [1] stands for this setting: test compound 10 μM (Ex. 182-220), beside Tyk2 1 μM.

T1 sequence (P29597 whole entry): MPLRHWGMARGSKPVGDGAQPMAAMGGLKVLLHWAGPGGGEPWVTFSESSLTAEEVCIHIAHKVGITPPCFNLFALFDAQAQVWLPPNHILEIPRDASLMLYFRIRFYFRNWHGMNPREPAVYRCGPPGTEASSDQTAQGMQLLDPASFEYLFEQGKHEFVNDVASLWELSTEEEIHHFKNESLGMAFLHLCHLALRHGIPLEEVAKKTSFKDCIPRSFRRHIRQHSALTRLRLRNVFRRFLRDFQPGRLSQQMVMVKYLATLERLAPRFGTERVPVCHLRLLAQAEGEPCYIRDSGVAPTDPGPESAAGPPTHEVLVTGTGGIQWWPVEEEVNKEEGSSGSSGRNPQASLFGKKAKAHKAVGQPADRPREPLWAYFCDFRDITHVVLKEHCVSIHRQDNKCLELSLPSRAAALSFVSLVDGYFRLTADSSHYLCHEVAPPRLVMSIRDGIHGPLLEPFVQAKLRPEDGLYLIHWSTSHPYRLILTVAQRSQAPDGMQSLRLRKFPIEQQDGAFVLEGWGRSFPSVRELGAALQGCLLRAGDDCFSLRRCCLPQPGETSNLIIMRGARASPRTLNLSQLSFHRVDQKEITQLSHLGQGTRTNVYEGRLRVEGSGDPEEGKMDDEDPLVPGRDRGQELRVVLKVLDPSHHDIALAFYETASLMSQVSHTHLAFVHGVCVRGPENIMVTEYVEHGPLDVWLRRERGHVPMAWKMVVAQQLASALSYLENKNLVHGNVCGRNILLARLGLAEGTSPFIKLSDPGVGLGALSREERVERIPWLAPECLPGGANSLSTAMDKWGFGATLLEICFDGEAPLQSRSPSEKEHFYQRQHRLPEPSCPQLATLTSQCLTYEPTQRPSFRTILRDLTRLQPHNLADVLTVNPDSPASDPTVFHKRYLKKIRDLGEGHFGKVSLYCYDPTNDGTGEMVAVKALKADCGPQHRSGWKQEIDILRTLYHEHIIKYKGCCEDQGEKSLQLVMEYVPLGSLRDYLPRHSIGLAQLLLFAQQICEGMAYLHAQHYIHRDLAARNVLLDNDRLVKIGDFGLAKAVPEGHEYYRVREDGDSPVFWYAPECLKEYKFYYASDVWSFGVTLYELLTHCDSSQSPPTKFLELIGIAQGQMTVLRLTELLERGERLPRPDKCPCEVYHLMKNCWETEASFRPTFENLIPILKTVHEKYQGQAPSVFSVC
T2 sequence (P23458 whole entry): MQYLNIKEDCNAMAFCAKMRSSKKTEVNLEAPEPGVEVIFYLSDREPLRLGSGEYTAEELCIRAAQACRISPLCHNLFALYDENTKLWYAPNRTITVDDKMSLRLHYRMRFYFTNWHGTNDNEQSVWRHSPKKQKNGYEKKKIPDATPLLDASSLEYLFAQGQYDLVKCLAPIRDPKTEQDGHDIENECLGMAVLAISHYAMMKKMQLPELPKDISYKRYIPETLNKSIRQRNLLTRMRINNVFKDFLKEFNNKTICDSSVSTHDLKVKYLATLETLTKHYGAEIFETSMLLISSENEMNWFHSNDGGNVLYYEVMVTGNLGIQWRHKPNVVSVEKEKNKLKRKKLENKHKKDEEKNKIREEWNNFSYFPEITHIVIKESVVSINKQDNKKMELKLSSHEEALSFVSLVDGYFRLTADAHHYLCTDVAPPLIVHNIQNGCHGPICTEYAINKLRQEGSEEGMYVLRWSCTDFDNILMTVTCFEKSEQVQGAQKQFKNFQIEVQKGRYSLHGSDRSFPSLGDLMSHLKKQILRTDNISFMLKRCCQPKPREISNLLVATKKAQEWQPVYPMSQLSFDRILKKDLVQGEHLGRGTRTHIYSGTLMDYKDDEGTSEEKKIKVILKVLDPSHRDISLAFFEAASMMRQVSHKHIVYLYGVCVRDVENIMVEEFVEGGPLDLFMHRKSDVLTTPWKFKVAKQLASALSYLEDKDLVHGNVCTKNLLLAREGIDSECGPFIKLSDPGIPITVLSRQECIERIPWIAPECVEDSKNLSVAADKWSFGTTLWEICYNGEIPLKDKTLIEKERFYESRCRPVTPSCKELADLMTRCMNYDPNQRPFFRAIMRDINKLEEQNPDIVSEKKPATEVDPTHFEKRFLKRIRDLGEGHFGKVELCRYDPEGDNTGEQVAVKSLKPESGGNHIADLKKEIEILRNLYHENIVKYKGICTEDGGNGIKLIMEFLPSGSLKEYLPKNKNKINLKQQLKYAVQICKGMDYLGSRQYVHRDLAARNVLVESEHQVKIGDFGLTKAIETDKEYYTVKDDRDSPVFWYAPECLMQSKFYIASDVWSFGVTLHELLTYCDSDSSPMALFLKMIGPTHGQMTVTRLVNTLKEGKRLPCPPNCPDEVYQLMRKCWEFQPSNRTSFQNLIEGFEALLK

In the case of `CNS(=O)(=O)c1ccc(-c2nn(C3CCCC3)c3cc[nH]c(=O)c23)cc1` [Example 223, 4-(1-cyclopentyl-4-oxo-4,5-dihydro-1H-pyrazolo[4,3-c]pyridin-3-yl)-N-methylbenzenesulfonamide], the inhibition at 1 µM at Tyk2 is 97%; on JAK1 (test compound 1 μM), 99%.

`NC(=O)c1cc(-n2nc(C3CCCC3)c3cc[nH]c(=O)c32)cs1` [Example 117, 4-(3-cyclopentyl-7-oxo-6,7-dihydro-1H-pyrazolo[3,4-c]pyridin-1-yl)thiophene-2-carboxamide]: the values for the inhibition at 1 µM at Tyk2 and at JAK1 (test compound 1 μM) were 98% and 99%, respectively.

For the molecule `O=c1[nH]cc(Cl)c2c1c(-c1ccc(N3CCOCC3)c(F)c1)nn2-c1c(F)cccc1F` [Example 206, 7-chloro-1-(2,6-difluorophenyl)-3-(3-fluoro-4-(morpholin-4-yl)phenyl)-1,5-dihydro-4H-pyrazolo[4,3-c]pyridin-4-one], the inhibition at 1 µM at Tyk2 was determined as 100%. For the same molecule, at JAK1 (setting [1]), the inhibition at 10 µM was 45%.

For `NS(=O)(=O)c1ccc(-n2nc(C3CCCC3)c3cc[nH]c(=O)c32)cc1` [Example 75, 4-(3-cyclopentyl-7-oxo-6,7-dihydro-1H-pyrazolo[3,4-c]pyridin-1-yl)benzenesulfonamide], the inhibition at 1 µM was 84% on Tyk2 and 93% at JAK1 (test compound 1 μM).

On to `COC(=O)c1c[nH]c(=O)c2c(-c3csc(C(N)=O)c3)cn(C3CCCC3)c12` [Example 34, methyl 3-(5-carbamoyl-3-thienyl)-1-cyclopentyl-4-oxo-4,5-dihydro-1H-pyrrolo[3,2-c]pyridine-7-carboxylate], for which the figures for the inhibition at 1 µM at Tyk2 and on JAK1 (test compound 1 μM) were 99% and 92%, respectively.

For the molecule `CNC(=O)c1ccc(F)c(-c2nn(-c3c(F)cccc3F)c3c(Cl)c[nH]c(=O)c23)c1` [Example 271, 3-(7-chloro-1-(2,6-difluorophenyl)-4-oxo-4,5-dihydro-1H-pyrazolo[4,3-c]pyridin-3-yl)-4-fluoro-N-methylbenzamide], the inhibition at 10 µM on Tyk2 (test compound 10 μM, read-out: Inhibitory rate (%) Tyk2 10 μM) was 26%; at JAK1 (test compound 10 μM), -1%.

Turning to `COC(=O)c1cc(-c2cn(C3CCCC3)c3cc[nH]c(=O)c23)cs1` [Example 3, methyl 4-(1-cyclopentyl-4-oxo-4,5-dihydro-1H-pyrrolo[3,2-c]pyridin-3-yl)thiophene-2-carboxylate], the inhibition at 1 µM at Tyk2 turned out to be 96%; on JAK1 (test compound 1 μM), 97%.

Regarding `O=C1COCCN1c1ccc(-c2nn(-c3c(F)cccc3F)c3cc[nH]c(=O)c23)cc1` [Example 304, 1-(2,6-difluorophenyl)-3-(4-(3-oxomorpholin-4-yl)phenyl)-1,5-dihydro-4H-pyrazolo[4,3-c]pyridin-4-one], the inhibition at 1 µM at Tyk2 was 99%; at JAK1 (test compound 1 μM), 97%.

Consider `NS(=O)(=O)c1ccc(-c2nn(C3CCC(O)CC3)c3cc[nH]c(=O)c23)cc1` (centres unmarked) [Example 126, 4-(1-(4-hydroxycyclohexyl)-4-oxo-4,5-dihydro-1H-pyrazolo[4,3-c]pyridin-3-yl)benzenesulfonamide], for which the “Inhibitory rate (%) Tyk2 1 μM” value at Tyk2 was 98%. The “Inhibitory rate (%) JAK1 1 μM” value on JAK1 (test compound 1 μM) is 99%.

Take `CC1(O)CCC(n2nc(-c3csc(C(N)=O)c3)c3c(=O)[nH]ccc32)CC1` (centres unmarked) [Example 199, 4-(1-(4-hydroxy-4-methylcyclohexyl)-4-oxo-4,5-dihydro-1H-pyrazolo[4,3-c]pyridin-3-yl)thiophene-2-carboxamide]: the “Inhibitory rate (%) Tyk2 1 μM” value at Tyk2 came to 100%. In addition, the “Inhibitory rate (%) JAK1 10 μM” value on JAK1 (setting [1]) worked out at 99%.

`CC(=O)N1CCC(c2ccc(-c3nn(-c4c(F)cccc4F)c4cc[nH]c(=O)c34)cc2)CC1` [Example 301, 3-(4-(1-acetylpiperidin-4-yl)phenyl)-1-(2,6-difluorophenyl)-1,5-dihydro-4H-pyrazolo[4,3-c]pyridin-4-one]: the inhibition at 1 µM at Tyk2 was 99%; on JAK1 (test compound 1 μM) it was 97%.

Consider `NS(=O)(=O)c1ccc(-c2cn([C@H]3CC[C@@H](O)CC3)c3cc[nH]c(=O)c23)cc1` [Example 32, 4-(1-(cis-4-hydroxycyclohexyl)-4-oxo-4,5-dihydro-1H-pyrrolo[3,2-c]pyridin-3-yl)benzenesulfonamide], for which the inhibition at 1 µM on Tyk2 came out at 95%; on JAK1 (test compound 1 μM) it was 98%.

As for `COC(=O)c1cc(-c2cn(C3CCCC3)c3c(C#N)c[nH]c(=O)c23)cs1` [Example 76, methyl 4-(7-cyano-1-cyclopentyl-4-oxo-4,5-dihydro-1H-pyrrolo[3,2-c]pyridin-3-yl)thiophene-2-carboxylate], the inhibition at 1 µM at Tyk2 was found to be 99%; on JAK1 (test compound 1 μM), 92%.

For the molecule `O=c1[nH]ccc2c1c(-c1cccc(F)c1)nn2C1CCCC1` [Example 55, 1-cyclopentyl-3-(3-fluorophenyl)-1,5-dihydro-4H-pyrazolo[4,3-c]pyridin-4-one], the inhibition at 1 µM at Tyk2 came to 85%; on JAK1 (test compound 1 μM), 78%.

Turning to `CN(C)C(=O)c1cc(-c2cn(C3CCCC3)c3c(C#N)c[nH]c(=O)c23)cs1` [Example 107, 4-(7-cyano-1-cyclopentyl-4-oxo-4,5-dihydro-1H-pyrrolo[3,2-c]pyridin-3-yl)-N,N-dimethylthiophene-2-carboxamide], the results for the inhibition at 1 µM on Tyk2 and on JAK1 (test compound 1 μM) were 98% and 96%, respectively.

As to `O=c1[nH]ccc2c1c(-c1cn[nH]c1)nn2C1CCCC1` [Example 204, 1-cyclopentyl-3-(1H-pyrazol-4-yl)-1,5-dihydro-4H-pyrazolo[4,3-c]pyridin-4-one], on Tyk2, the inhibition at 1 µM is 98%. The inhibition at 10 µM on JAK1 (setting [1]) was found to be 98%.

As to `NC(=O)Cc1cccc(-c2nn(C3CCCC3)c3cc[nH]c(=O)c23)c1` [Example 158, 2-(3-(1-cyclopentyl-4-oxo-4,5-dihydro-1H-pyrazolo[4,3-c]pyridin-3-yl)phenyl)acetamide], the inhibition at 1 µM on Tyk2 and on JAK1 (test compound 1 μM) was 91% throughout.

On to `O=c1[nH]ccc2c(-c3ccccc3)nn(-c3ccsc3)c12` [Example 11, 3-phenyl-1-(3-thienyl)-1,6-dihydro-7H-pyrazolo[3,4-c]pyridin-7-one], for which the inhibition at 1 µM on Tyk2 is 66%; on JAK1 (test compound 1 μM), 55%.

For the molecule `N#Cc1c[nH]c(=O)c2c(-c3cn[nH]c3)cn(C3CCCC3)c12` [Example 111, 1-cyclopentyl-4-oxo-3-(1H-pyrazol-4-yl)-4,5-dihydro-1H-pyrrolo[3,2-c]pyridine-7-carbonitrile], the inhibition at 1 µM on Tyk2 is 99%; on JAK1 (test compound 1 μM) it was 96%.

In the case of `O=C(c1cc(-c2nn(-c3c(F)cccc3F)c3c(Cl)c[nH]c(=O)c23)cs1)N1CCOCC1` [Example 192, 7-chloro-1-(2,6-difluorophenyl)-3-(5-(morpholin-4-ylcarbonyl)-3-thienyl)-1,5-dihydro-4H-pyrazolo[4,3-c]pyridin-4-one], the inhibition at 1 µM on Tyk2 came to 99%. The inhibition at 10 µM at JAK1 (setting [1]) stood at 94%.

`NC(=O)Cc1cccc(-c2nn(-c3c(F)cccc3F)c3c(Br)c[nH]c(=O)c23)c1` [Example 147, 2-(3-(7-bromo-1-(2,6-difluorophenyl)-4-oxo-4,5-dihydro-1H-pyrazolo[4,3-c]pyridin-3-yl)phenyl)acetamide]: the inhibition at 1 µM on Tyk2 was 99%; on JAK1 (test compound 1 μM), 74%.

For `CC(C)(C)n1nc(-c2ccc(N3CCOCC3)cc2)c2c(=O)[nH]ccc21` [Example 243, 1-tert-butyl-3-(4-(morpholin-4-yl)phenyl)-1,5-dihydro-4H-pyrazolo[4,3-c]pyridin-4-one], the values for the inhibition at 1 µM at Tyk2 and at JAK1 (test compound 1 μM) were 76% and 52%, respectively.

The values above are taken from patent US9371320B2, “Heterocyclic compound” (TAKEDA PHARMACEUTICAL COMPANY LIMITED, priority 2012, dated 2016).
